Assays:
[1] = Clinical pharmacokinetics of acalabrutinib and its major metabolite; type: in vivo, human
Description: The compound of Formula (I) was identified as the major metabolite in plasma with a geometric mean exposure (AUC) approximately 2- to 3-fold higher than the exposure of acalabrutinib.
Acalabrutinib and the major metabolite form a covalent bond with a cysteine residue in the BTK active site, leading to inhibition of BTK enzymatic activity. Acalabrutinib binding with the cysteine residue occurs rapidly and irreversibly and provides high target occupancy at steady state.

CYP3A4/5 = assay: CYP inhibition, CYP3A4/5; type: in vitro ADME
CYP2C8 = CYP2C8 (Homo sapiens (Human), UniProt P10632); assay: CYP inhibition, CYP2C8; type: in vitro ADME
Chain of CYP2C8 (P10632 whole entry): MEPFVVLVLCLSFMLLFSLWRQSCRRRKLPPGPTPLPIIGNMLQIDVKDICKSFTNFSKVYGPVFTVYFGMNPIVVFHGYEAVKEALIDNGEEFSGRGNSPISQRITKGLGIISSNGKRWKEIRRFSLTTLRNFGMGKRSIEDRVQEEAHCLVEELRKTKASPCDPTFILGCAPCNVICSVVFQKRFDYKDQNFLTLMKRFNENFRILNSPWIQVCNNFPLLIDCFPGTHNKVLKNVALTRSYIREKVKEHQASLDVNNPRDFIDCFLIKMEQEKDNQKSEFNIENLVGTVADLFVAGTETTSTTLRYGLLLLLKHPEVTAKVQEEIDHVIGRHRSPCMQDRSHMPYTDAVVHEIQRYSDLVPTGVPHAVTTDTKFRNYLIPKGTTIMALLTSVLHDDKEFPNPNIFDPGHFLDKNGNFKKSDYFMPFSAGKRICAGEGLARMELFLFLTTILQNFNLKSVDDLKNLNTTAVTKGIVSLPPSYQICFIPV

CYP2C9 = CYP2C9 (Homo sapiens (Human), UniProt P11712); assay: CYP inhibition, CYP2C9; type: in vitro ADME
Chain of CYP2C9 (P11712 whole entry): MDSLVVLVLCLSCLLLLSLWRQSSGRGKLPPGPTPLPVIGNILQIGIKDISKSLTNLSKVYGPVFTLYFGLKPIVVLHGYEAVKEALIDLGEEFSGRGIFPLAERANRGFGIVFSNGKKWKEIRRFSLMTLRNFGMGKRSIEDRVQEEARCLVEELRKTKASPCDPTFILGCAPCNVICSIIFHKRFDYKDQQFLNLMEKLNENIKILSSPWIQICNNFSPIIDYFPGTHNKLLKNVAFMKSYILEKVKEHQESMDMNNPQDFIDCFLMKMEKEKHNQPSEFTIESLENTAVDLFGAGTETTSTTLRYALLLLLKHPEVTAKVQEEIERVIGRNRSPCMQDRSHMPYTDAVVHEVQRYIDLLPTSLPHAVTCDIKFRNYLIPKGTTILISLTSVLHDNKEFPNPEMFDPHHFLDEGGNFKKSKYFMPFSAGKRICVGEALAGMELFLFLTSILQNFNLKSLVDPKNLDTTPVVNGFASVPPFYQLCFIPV

CYP2B6 [2] = molecular target: CYP2B6 (Homo sapiens (Human), UniProt P20813); assay: CYP inhibition, CYP2B6; type: in vitro ADME
Chain of CYP2B6 (Homo sapiens (Human), UniProt P20813) (P20813 whole entry): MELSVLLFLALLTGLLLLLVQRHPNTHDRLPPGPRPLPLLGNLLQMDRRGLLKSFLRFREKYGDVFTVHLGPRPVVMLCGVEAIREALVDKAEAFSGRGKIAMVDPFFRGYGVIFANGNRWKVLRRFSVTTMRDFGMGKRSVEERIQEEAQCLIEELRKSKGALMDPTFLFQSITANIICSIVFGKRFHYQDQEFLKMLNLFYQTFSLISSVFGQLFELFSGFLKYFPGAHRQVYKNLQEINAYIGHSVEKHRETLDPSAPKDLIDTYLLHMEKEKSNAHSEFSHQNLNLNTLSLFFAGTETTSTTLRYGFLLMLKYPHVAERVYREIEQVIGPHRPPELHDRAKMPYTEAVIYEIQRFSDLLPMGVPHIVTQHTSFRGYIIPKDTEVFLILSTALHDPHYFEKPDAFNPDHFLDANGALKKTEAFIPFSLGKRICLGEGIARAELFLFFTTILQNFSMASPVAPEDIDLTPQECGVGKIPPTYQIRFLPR

CYP2C19 = CYP2C19 (Homo sapiens (Human), UniProt P33261); assay: CYP inhibition, CYP2C19; type: in vitro ADME
Chain of CYP2C19 (P33261 whole entry): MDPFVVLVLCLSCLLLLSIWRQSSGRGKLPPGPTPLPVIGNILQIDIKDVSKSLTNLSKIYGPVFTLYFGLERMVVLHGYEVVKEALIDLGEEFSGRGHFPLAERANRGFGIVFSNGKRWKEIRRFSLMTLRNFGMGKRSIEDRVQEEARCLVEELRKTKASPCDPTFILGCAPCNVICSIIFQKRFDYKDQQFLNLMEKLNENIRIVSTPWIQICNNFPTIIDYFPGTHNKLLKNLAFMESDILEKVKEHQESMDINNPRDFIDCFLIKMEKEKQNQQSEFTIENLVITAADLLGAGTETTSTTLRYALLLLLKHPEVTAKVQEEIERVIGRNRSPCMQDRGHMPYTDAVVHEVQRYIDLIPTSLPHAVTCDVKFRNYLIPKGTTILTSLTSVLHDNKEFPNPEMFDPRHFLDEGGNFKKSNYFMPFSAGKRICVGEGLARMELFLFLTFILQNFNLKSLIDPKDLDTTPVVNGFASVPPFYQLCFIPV

CYP2D6 = CYP2D6 (Homo sapiens (Human), UniProt P10635); assay: CYP inhibition, CYP2D6; type: in vitro ADME
Chain of CYP2D6 (P10635 whole entry): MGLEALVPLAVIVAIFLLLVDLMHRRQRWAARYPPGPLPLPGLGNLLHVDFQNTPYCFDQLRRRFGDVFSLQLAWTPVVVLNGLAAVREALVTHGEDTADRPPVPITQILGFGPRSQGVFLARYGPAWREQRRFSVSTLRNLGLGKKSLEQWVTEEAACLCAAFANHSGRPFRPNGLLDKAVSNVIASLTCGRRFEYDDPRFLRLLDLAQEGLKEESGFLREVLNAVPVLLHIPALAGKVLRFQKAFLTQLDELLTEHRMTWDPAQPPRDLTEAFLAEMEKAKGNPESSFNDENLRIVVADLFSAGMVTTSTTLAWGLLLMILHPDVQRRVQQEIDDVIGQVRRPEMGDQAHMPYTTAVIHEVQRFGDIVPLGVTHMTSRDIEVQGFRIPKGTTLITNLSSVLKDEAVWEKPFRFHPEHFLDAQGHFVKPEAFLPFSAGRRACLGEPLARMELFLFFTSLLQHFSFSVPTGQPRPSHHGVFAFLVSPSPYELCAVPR

CYP1A2 [3] = assay: CYP induction, CYP1A2; type: in vitro ADME
CYP2B6 [4] = assay: CYP induction, CYP2B6; type: in vitro ADME
CYP3A4 = assay: CYP induction, CYP3A4; type: in vitro ADME
CYP3A enzymes = assay: In vitro metabolism studies; type: in vitro ADME
CYP1A2 [5] = molecular target: CYP1A2 (Homo sapiens (Human), UniProt P05177)
Chain of CYP1A2 (Homo sapiens (Human), UniProt P05177) (P05177 whole entry): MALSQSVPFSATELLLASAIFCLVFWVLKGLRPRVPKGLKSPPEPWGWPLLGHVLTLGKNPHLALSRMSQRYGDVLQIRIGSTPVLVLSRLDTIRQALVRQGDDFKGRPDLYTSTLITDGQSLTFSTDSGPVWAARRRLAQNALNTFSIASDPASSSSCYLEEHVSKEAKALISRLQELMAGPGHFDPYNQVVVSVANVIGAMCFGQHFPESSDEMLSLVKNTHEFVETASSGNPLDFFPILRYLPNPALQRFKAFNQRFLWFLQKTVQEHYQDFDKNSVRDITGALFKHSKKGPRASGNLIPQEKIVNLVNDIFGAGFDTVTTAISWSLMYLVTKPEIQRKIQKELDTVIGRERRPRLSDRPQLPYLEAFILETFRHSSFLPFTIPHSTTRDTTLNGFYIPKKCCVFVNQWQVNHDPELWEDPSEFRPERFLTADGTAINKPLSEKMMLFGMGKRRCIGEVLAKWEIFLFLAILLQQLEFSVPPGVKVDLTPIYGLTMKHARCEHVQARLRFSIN

Question: Which results are given for `CC#CC(=O)N1CCC[C@H]1c1nc(-c2ccc(C(=O)Nc3ccccn3)cc2)c2c(N)nccn12` [acalabrutinib, reference compound]?
Answer: half-life ([1]; human, in vivo, single oral dose of 100 mg acalabrutinib, read-out: median terminal elimination half-life (t½) (converted)): 54 min; mean apparent oral clearance (CL/F) ([1]; population pharmacokinetics analysis): 159 L/h; CYP3A4/5 inhibition (CYP3A4/5): weak inhibitor; CYP2C8 inhibition (CYP2C8): weak inhibitor; CYP2C9 inhibition (CYP2C9): weak inhibitor; CYP2B6 inhibition (CYP2B6 [2]): does not inhibit; CYP2C19 inhibition (CYP2C19): does not inhibit; CYP2D6 inhibition (CYP2D6): does not inhibit; CYP1A2 induction (CYP1A2 [3]): weak inducer; CYP2B6 induction (CYP2B6 [4]): weak inducer; CYP3A4 induction (CYP3A4): weak inducer; metabolic route (CYP3A enzymes): predominantly metabolized by CYP3A enzymes; CYP1A2 inhibition (CYP1A2 [5]): does not inhibit
